This is an account of results in patent publication US10011597B2 (APOGLYX AB, priority 2014, dated 2018).

Structures are written as SMILES.

The assay deals with T1, human aquaporin 9 (Homo sapiens, UniProt O43315).
T1 construct: expressed in transfected cells; host or cells: Human AQP9 cell line with tetracycline added to the medium
T1 sequence (O43315 1-295): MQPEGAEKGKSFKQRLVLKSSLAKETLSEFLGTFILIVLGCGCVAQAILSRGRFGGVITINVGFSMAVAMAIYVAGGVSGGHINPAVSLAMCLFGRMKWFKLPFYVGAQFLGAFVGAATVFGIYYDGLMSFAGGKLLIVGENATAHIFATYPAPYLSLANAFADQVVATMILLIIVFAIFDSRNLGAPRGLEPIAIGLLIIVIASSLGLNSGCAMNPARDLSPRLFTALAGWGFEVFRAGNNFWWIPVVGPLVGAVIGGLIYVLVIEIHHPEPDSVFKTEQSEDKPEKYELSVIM
Kind of assay: Calcein quenching fluostar assay. The assay is classed as cell-based. The conditions noted are these: inhibition of human aquaporin 9; Human AQP9 cell line, tetracyclin-induced; 25° C. The protocol:
Calcein Quenching Fluostar Assay
A calcein quenching fluostar assay was performed in order to investigate the biological activity of the newly synthesized examples 1 to 57. This type of assay is disclosed in J. Biol. Chem., 2011, 286, 44319-44325 and Am. J. Physiol. Renal Physiol. (2010), 298, F224-230.
1) Two days prior to commencement of the assay, seed 10,000 cells/well of 96 well black clear bottom plate (Greiner Poly-lysin plate). A 1:1 mix of Dulbecco's Modified Eagle's Medium:Nutrient Mixture F-12 (DMEM: F12) was obtained from Gibco. Tetracycline stock of 5 mg/ml in 96% ethanol is used. Medium:DMEM/F12/10% Donor Bovine Serum, Human AQP9 cell line+1:270,000 tetracyclin, mouse AQP9 cell line+1:2,700,000 tetracycline.
2) Day of assay: Flick/slam off the medium and add 50 μl/well of loading solution: 5 ml DMEM/F12/10% Donor Bovine Serum, 25 μl Calcein AM—from freshly dissolved aliquot in 50 μl DMSO (VWR #734-1434), and 100 μl Probenecid.
3) Incubate the well for 90 minutes at 37° C.
4) Perform one wash with 75 μl wash buffer.
5) Add 75 μl of an example compound prepared in wash buffer per well.
Example compounds are prepared in 500 μl U bottom PP plates (NUNC). […] Substance in DMSO are added to row A; 180 μl of wash buffer+1% DMSO are added to rows B-H. 90 μl from row A are transferred and mixed with all other wells (up to row G) to make a 3-fold dilution series.
6) Assay in FLUOstar Optima at 25° C. Settings buffer addition at 135 μl seconds, add 75 μl/well, record time course for 30 seconds, add sucrose buffer 3.6 seconds into recording.
7) Normalization to initial in Excel.
8) Fit to “exponential decay” function in GraphPad Prism 5.0, then arrange half live shrinking values according to wells and fit dose-response curves.
The term IC50 denotes the concentration that gives 50% inhibition. For the molecule `CCn1c(SCC(=O)Nc2nnc(-c3ccc(S(C)(=O)=O)cc3)s2)nnc1-c1ccc(F)cc1` [Example 53, 2-{[4-ethyl-5-(4-fluorophenyl)-4H-1,2,4-triazol-3-yl]sulfanyl}-N-[5-(4-methanesulfonylphenyl)-1,3,4-thiadiazol-2-yl]acetamide], the IC50 was 134 nM. Take `CCn1c(SCC(=O)Nc2nnc(-c3ccc(CS(C)(=O)=O)cc3)s2)nnc1-c1ccc(F)cc1` [Example 54, 2-{[4-ethyl-5-(4-fluorophenyl)-4H-1,2,4-triazol-3-yl]sulfanyl}-N-{5-[4-(methanesulfonylmethyl)phenyl]-1,3,4-thiadiazol-2-yl}acetamide]: the IC50 is 901 nM. Take `CCn1c(SCC(=O)Nc2nnc(-c3ccc(SC)cc3)s2)nnc1-c1ccc(F)cc1` [Example 55, 2-{[4-ethyl-5-(4-fluorophenyl)-4H-1,2,4-triazol-3-yl]sulfanyl}-N-{5-[4-(methylsulfanyl)phenyl]-1,3,4-thiadiazol-2-yl}acetamid]: the IC50 was 676 nM. Next, `CCn1c(SCC(=O)Nc2nnc(-c3ccc(S(C)(=O)=O)cc3)s2)nnc1-c1ccncc1` [Example 56, 2-{[4-ethyl-5-(pyridin-4-yl)-4H-1,2,4-triazol-3-yl]sulfanyl}-N-[5-(4-methanesulfonylphenyl)-1,3,4-thiadiazol-2-yl]acetamid]: 151 nM. With `CCn1c(SCC(=O)Nc2nnc(-c3ccc(S(C)(=O)=O)cc3)s2)nnc1-c1cccnc1` [Example 57, 2-{[4-ethyl-5-(pyridin-3-yl)-4H-1,2,4-triazol-3-yl]sulfanyl}-N-[5-(4-methanesulfonylphenyl)-1,3,4-thiadiazol-2-yl]acetamide] the figure was 133 nM.
